Data as given in patent publication US20200048308A1, “INFLUENZA VIRUS NE[…]” (priority 2016, published 2020).
Where two headings read alike, the source gives them in different places.

What was measured:
[1] = target: H1/Nca HA (biotinylated full length trimeric HA, A/New Caledonia/20/1999) (Influenza A virus, UniProt Q6WG00); assay: AlphaLISA competition assay with HB80.4, H1/NCa HA; assay type: binding, influenza A virus H1N1 A/New Caledonia/20/1999
Excerpt: (§1) Binding competition studies were designed to test compounds of the invention for competition with other well characterized HA binding proteins (such as e.g. CR9114, CR6261 and HB80.4) with known epitopes on HA. The epitopes where either located at the stem of the HA (viral membrane proximal part of HA) or, for control purposes, at the head of HA (viral membrane distal part of HA). If competition was observed, it was assumed that both molecules bind to a similar or at least overlapping epitope at the surface of HA. Competition with a HA head- and stem-binder was interpreted as unspecific binding.
(§2) Hereto an AlphaLISA competition assay (Perkin Elmer) was established which relied on biotinylated full length and trimeric HA proteins (Protein Sciences, 10 μL, 0.5 nM final concentration in 50 μL) bound by HA-specific binders. The interaction between HA and the binder was detected after 1 h incubation at room temperature (RT) with two beads, a streptavidin donor bead recognizing HA (10 μL of 10 μg/mL) and an anti Fc bead (10 μg/mL) recognizing the IgGs used. If after an additional hour of incubation at RT the excited donor bead (680 nm) and acceptor bead are in close proximity, an energy transfer (singlet oxygen) can be measured as a luminescence signal of the acceptor bead (Perkin Elmer EnVision plate reader). The signal intensity in this homogeneous assay format is directly proportional to the binding strength (affinity/avidity) between both binding partners.

[2] = system: influenza virus A/New Caledonia (H1); assay: Virus neutralization assay (VNA) on Calu-3 cells; assay type: cell-based, influenza A virus H1N1 A/New Caledonia/20/1999
[3] = target: H1/Cal HA (biotinylated full length trimeric HA, A/California/07/2009) (Influenza A virus, UniProt C3W5X2); assay: AlphaLISA competition assay with HB80.4, H1/Cal HA; assay type: binding, influenza A virus H1N1 A/California/07/2009
Excerpt: as §1, §2

[4] = ALC_H1_NCa_HB80.4 calculated pIC50, AlphaLISA competition with HB80.4 on H1 NCa HA, 0.5 nM HA
[5] = Calu-3 cells, 5 TCID50/50 μL virus, 4 days, NP ELISA readout

| Structure (SMILES) | IC50 [1, 4] | VNA_H1_NCa_Calu3 pIC50 [2, 5] | IC50 [3] | IC50 ([1]; IC50 in the alphalisa assay, best compound, strain not stated in text (matches pIC50 7.9 on H1 NCa)) | IC50 [1] | VNA_H1_NCa_Calu3 pIC50 [2] |
| --- | --- | --- | --- | --- | --- | --- |
| CSCC[C@@H]1NC(=O)CNC(=O)CNC(=O)[C@H](C)NC(=O)[C@H](C(C)C)NC(=O)CNC(=O)[C@H](CC(C)C)NC(=O)[C@@H]2CCCN2C(=O)[C@H](CC(=O)O)NC(=O)[C@H](CCCNC(=N)N)NC(=O)[C@H](Cc2ccc(O)cc2)NC(=O)[C@H](CC(C)C)NC(=O)[C@@H](NC(=O)CCC(=O)O)CSSC[C@@H](C(N)=O)NC(=O)CNC1=O [CP141076, Suc-Cys-Leu-Tyr-Arg-Asp-Pro-Leu-Gly-Val-Ala-Gly-Gly-Met-Gly-Cys-NH2] | 126 nM | 6.0 | 100 nM | – | – | – |
| CSCC[C@@H]1NC(=O)CNC(=O)CNC(=O)[C@H](C)NC(=O)[C@H](C(C)C)NC(=O)CNC(=O)[C@H](CC(C)C)NC(=O)[C@@H]2CCCN2C(=O)[C@H](CC(=O)O)NC(=O)[C@H](CCC(=O)O)NC(=O)[C@H](Cc2ccc(O)cc2)NC(=O)[C@H](CC(C)C)NC(=O)[C@H](CO)NC(=O)[C@H](C(C)C)NC(=O)CNC(=O)[C@H]2CCCN2C(=O)[C@H](Cc2ccc(O)cc2)NC(=O)[C@H](C(C)C)NC(=O)CNC1=O [CP141082, Gly-Val-Ser-Leu-Tyr-Glu-Asp-Pro-Leu-Gly-Val-Ala-Gly-Gly-Met-Gly-Val-Tyr-D-Pro] | 20 nM | 4.3 | 20 nM | – | – | – |
| CSCC[C@@H]1NC(=O)CNC(=O)CNC(=O)[C@H](C)NC(=O)[C@H](C(C)C)NC(=O)CNC(=O)[C@H](CC(C)C)NC(=O)[C@@H]2CCCN2C(=O)[C@H](CC(=O)O)NC(=O)[C@H](CCC(=O)O)NC(=O)[C@H](Cc2ccc(O)cc2)NC(=O)[C@H](CC(C)C)NC(=O)CNC(=O)[C@H]2CCCN2C(=O)CNC1=O [CP141084, Gly-Leu-Tyr-Glu-Asp-Pro-Leu-Gly-Val-Ala-Gly-Gly-Met-Gly-D-Pro] | 398 nM | 5.7 | 794 nM | – | – | – |
| CSCC[C@@H]1NC(=O)CNC(=O)CNC(=O)[C@H](C)NC(=O)[C@H](C(C)C)NC(=O)CNC(=O)[C@H](CC(C)C)NC(=O)[C@@H]2CCCN2C(=O)[C@H](CC(=O)O)NC(=O)[C@H](CCC(=O)O)NC(=O)[C@H](Cc2ccc(O)cc2)NC(=O)[C@H](CC(C)C)NC(=O)[C@H](CO)NC(=O)[C@H](C(C)C)NC(=O)[C@@H]2CCCN2C(=O)[C@H]2CCCN2C(=O)[C@H](Cc2ccc(O)cc2)NC(=O)[C@H](C(C)C)NC(=O)CNC1=O [CP141085, Pro-Val-Ser-Leu-Tyr-Glu-Asp-Pro-Leu-Gly-Val-Ala-Gly-Gly-Met-Gly-Val-Tyr-D-Pro] | 12.6 nM | 5.9 | 15.8 nM | 13 nM | – | – |
| CSCC[C@@H]1NC(=O)CNC(=O)CNC(=O)[C@H](C)NC(=O)[C@H](C(C)C)NC(=O)CNC(=O)[C@H](CC(C)C)NC(=O)[C@@H]2CCCN2C(=O)[C@H](CC(=O)O)NC(=O)[C@H](CCC(=O)O)NC(=O)[C@H](Cc2ccc(O)cc2)NC(=O)[C@H](CC(C)C)NC(=O)[C@@H]2CCCN2C(=O)[C@H]2CCCN2C(=O)CNC1=O [CP141086, Pro-Leu-Tyr-Glu-Asp-Pro-Leu-Gly-Val-Ala-Gly-Gly-Met-Gly-D-Pro] | 200 nM | 4.6 | 1580 nM | – | – | – |
| CSCC[C@@H]1NC(=O)CNC(=O)CNC(=O)[C@H](C)NC(=O)[C@H](C(C)C)NC(=O)CNC(=O)[C@H](CC(C)C)NC(=O)[C@@H]2CCCN2C(=O)[C@H](CC(=O)O)NC(=O)[C@H](CCC(=O)O)NC(=O)[C@H](Cc2ccc(O)cc2)NC(=O)[C@H](CC(C)C)NC(=O)CNC(=O)CNC1=O [CP141087, Leu-Tyr-Glu-Asp-Pro-Leu-Gly-Val-Ala-Gly-Gly-Met-Gly-Gly] | – | – | 501 nM | – | 631 nM | 4.9 |
| CSCC[C@@H]1NC(=O)CNC(=O)CNC(=O)[C@H](C)NC(=O)[C@H](C(C)C)NC(=O)CNC(=O)[C@H](CC(C)C)NC(=O)[C@@H]2CCCN2C(=O)[C@H](CC(=O)O)NC(=O)[C@H](CCC(=O)O)NC(=O)[C@H](Cc2ccc(O)cc2)NC(=O)[C@H](CC(C)C)NC(=O)CNC1=O [CP141088, Leu-Tyr-Glu-Asp-Pro-Leu-Gly-Val-Ala-Gly-Gly-Met-Gly] | – | – | 251 nM | – | 251 nM | 4.4 |
| CSCC[C@@H]1NC(=O)CNC(=O)CNC(=O)[C@H](C)NC(=O)[C@H](C(C)C)NC(=O)CNC(=O)[C@H](CC(C)C)NC(=O)[C@@H]2CCCN2C(=O)[C@H](CC(=O)O)NC(=O)[C@H](CCC(=O)O)NC(=O)[C@H](Cc2ccc(O)cc2)NC(=O)[C@H](CC(C)C)NC(=O)[C@H](CO)NC(=O)[C@H]2CCCN2C(=O)[C@@H]2CCCN2C(=O)[C@H](C(C)C)NC(=O)CNC1=O [CP141091, D-Pro-Ser-Leu-Tyr-Glu-Asp-Pro-Leu-Gly-Val-Ala-Gly-Gly-Met-Gly-Val-Pro] | – | – | 5010 nM | – | 6310 nM | 4.2 |
